Laboratory results reported in patent publication US20070155746A1, “NOVEL SUBSTITUTED PYRIDINYLOXY AND PYRIMIDINYLOXY AMIDES USEFUL AS INHIBITORS OF PROTEIN KINASES” (KALYPSYS, INC., priority 2005, published 2007).

How the values were obtained:
Type in all cases: biochemical
[1] = target: T1, VEGFR2 kinase (Homo sapiens, UniProt P35968); assay: In vitro VEGFR2 kinase assay
T1 construct: purchased Invitrogen Inc PV3660
Description: (§1) In Vitro VEGFR2 and PDGFRP Kinase Assays
(§2) 2.5 μl of ADP Quest assay buffer (DiscoverX Inc., cat. #90-0071) containing 20 ng VEGFR2 kinase (Invitrogen Inc, cat. #PV3660) or 25 ng PDGFRβ kinase (Invitrogen Inc., cat. #P3082) is dispensed to wells of a 1536 multi-well, black solid plate. 60 nl of 100× concentration of test compound in DMSO is dispensed to the well by passive pin transfer and incubated for 10 minutes at room temperature (approx. 22° C.). 2.5 μl of ADP Quest assay buffer containing 0.25 μg of poly Glu:Tyr (4:1) substrate peptide (Upstate Inc., cat. #12-440) and 60 μM ATP is then dispensed and the kinase reaction allowed to incubate at 30° C. for 2 hours. The assay plates are sealed and maintained in a humidified environment. After the 2 hour incubation, 2 μl of ADP Quest assay reagent A, followed by 2 μl of assay reagent B, is added. After an additional 30 minute incubation at room temperature, fluorescence intensity is measured on a Molecular Devices Aquest multi-mode plate reader or other suitable plate reader (fluorescence excitation filter: 530/25 [Peak(nm)/FWHM passband(nm)]; dichroic beamsplitter: 561 nm longpass; fluorescence emission filter: 580/10 [Peak(nm)/FWHM passband(nm)]. The assay measures the conversion of a non-fluoresecent molecule to fluorescent resorufin, which correlates with kinase activity. Negative control activity is measured with DMSO lacking any test compound. The positive control is [N-(3-trifluoromethyl-4-chlorophenyl)-N′-(4-(2-methylcarbamoyl-pyridin-4-yl)oxyphenyl)urea], aka Bay 43-9006. Efficacy is measured as a percentage of positive control activity.

[2] = target: T2, PDGFRβ kinase (Homo sapiens, UniProt P09619); assay: In vitro PDGFRβ kinase assay
T2 construct: purchased Invitrogen Inc. P3082
T2 sequence (P09619 33-1106): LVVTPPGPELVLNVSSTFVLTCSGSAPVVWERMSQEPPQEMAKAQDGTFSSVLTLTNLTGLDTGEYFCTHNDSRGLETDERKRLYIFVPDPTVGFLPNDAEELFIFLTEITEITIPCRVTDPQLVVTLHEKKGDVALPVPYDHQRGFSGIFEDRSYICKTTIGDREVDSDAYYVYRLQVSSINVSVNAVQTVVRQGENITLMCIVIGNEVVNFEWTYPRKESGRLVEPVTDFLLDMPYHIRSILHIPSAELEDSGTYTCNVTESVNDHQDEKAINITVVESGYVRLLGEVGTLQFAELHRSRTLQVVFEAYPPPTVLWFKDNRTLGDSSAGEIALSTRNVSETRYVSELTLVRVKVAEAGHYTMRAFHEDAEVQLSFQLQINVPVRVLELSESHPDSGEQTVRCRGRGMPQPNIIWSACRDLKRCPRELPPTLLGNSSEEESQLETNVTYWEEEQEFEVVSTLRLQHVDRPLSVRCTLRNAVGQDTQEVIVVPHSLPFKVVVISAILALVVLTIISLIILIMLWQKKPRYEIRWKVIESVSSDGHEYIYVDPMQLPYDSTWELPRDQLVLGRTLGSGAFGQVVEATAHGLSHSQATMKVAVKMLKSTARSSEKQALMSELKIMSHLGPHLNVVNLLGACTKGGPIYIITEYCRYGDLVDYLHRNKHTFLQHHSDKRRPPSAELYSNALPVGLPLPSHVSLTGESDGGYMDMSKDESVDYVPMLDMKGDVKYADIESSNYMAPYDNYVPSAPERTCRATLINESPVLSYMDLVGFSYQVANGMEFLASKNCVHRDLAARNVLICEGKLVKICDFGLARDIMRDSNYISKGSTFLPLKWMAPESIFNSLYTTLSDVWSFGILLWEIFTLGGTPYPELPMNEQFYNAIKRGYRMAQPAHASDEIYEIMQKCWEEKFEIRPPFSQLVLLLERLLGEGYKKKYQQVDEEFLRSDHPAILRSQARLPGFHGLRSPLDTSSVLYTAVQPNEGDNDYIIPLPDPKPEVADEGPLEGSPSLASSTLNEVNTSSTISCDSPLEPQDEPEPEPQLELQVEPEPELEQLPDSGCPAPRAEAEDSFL
Description: as §1, §2

[3] = target: T3, human B-Raf protein kinase (Homo sapiens, UniProt P15056); assay: In vitro B-Raf/Mek1 composite kinase assay
T3 construct: GST (N); purchased Upstate Inc. 14-530 (B-Raf); 14-420 (Mek1)
T3 sequence (P15056 416-766): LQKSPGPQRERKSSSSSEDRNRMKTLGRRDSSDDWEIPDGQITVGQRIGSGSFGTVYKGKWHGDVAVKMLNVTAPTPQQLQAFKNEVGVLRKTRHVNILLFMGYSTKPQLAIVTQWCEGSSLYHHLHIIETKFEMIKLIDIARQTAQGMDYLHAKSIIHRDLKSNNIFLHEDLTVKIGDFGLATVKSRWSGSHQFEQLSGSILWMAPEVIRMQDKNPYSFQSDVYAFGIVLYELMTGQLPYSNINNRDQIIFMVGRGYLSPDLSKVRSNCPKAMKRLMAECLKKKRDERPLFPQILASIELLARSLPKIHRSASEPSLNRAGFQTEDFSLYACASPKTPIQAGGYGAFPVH
Description: In Vitro B-Raf/Mek1 Composite Kinase Assay
2.5 μl of B-Raf kinase buffer (20 mM MOPS [pH 7.2], 25 mM sodium glycerophosphate, 2 mM EGTA [pH 8.0], 1 mM sodium orthovanadate, 1 mM dithiothreitol, 10 mM MgCl2, 0.03% Brij-35, 0.3 mg/ml bovine serum albumin) containing lng of recombinant, N-terminal GST-tagged human B-Raf protein kinase (Δ1-415, Upstate Inc., cat. #14-530) is dispensed to wells of a 1536 multi-well white solid plate. 60 nl of 100× concentration of test compound in DMSO is dispensed to the well by passive pin transfer and incubated for 15 minutes at room temperature (approx. 22° C.). […] The assay plates are sealed and maintained in a humidified environment. After 2 hours, 2.5 μl of PKLight protein kinase assay reagent (Cambrex, cat. #LT07-501) is dispensed. After an additional 5 minute incubation at room temperature, luminescence activity is measured on a Molecular Devices Analyst multi-mode plate reader or other suitable plate reader. Kinase inhibition results in less ATP depletion, and therefore increased luminescence signal. Negative control activity is measured with DMSO lacking any test compound. The positive control is [N-(3-trifluoromethyl-4-chlorophenyl)-N′-(4-(2-methylcarbamoyl-pyridin-4-yl)oxyphenyl)urea], aka Bay 43-9006. Efficacy is measured as a percentage of positive control activity.

T1 sequence (P35968 20-1356): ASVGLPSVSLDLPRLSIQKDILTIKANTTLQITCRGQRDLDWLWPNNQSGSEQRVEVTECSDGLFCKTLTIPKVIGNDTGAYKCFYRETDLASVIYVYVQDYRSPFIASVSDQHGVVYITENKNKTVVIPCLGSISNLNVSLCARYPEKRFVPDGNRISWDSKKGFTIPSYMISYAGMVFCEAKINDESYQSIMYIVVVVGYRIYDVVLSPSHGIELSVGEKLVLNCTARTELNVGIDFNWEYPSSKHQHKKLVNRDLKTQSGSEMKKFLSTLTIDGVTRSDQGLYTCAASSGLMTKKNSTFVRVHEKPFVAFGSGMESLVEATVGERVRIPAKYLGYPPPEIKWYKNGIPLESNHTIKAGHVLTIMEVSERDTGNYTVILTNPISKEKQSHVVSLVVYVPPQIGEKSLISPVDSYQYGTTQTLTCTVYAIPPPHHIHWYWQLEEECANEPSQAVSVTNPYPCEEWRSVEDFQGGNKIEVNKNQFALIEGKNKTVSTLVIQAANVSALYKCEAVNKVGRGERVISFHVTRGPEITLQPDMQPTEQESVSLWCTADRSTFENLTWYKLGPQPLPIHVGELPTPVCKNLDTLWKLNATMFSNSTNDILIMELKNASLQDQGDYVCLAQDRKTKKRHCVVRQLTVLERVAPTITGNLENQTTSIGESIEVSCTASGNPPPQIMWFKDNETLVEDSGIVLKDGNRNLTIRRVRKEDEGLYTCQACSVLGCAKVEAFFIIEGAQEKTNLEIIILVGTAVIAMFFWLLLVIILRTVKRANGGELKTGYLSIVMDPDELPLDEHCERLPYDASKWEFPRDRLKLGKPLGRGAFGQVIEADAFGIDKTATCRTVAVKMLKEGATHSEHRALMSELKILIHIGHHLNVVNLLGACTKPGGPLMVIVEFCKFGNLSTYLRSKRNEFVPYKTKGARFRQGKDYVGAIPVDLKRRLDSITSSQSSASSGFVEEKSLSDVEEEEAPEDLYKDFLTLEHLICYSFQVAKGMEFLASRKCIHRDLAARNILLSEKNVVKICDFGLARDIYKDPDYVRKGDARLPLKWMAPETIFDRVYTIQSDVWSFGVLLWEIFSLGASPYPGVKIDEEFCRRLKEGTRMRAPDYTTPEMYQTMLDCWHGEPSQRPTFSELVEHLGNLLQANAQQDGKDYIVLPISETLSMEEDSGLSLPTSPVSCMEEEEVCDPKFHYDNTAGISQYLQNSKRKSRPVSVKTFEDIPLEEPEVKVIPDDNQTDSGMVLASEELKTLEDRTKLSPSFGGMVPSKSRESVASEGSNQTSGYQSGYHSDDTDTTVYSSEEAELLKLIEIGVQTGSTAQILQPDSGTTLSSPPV

Compound | IC50 [1] [µM] | IC50 [2] [µM] | IC50 [3] [µM]
CC(C#N)c1cccc(C(=O)Nc2cccc(Oc3ccnc(-c4cnn(C)c4)c3)c2)c1 (racemic) [Example 48, (±)-3-(1-Cyanoethyl)-N-(3-(2-(1-methyl-1H-pyrazol-4-yl)pyridin-4-yloxy)phenyl)benzamide] | > 10 | > 10 | > 10
CCOc1cc(OCC)cc(C(=O)Nc2cccc(Oc3ccnc(-c4nnco4)c3)c2)c1 [Example 7, N-(3-(2-(1,3,4-Oxadiazol-2-yl)pyridin-4-yloxy)phenyl)-3,5-diethoxybenzamide] | > 10 | > 10 | > 10
CCCCOc1cc(C(=O)Nc2cccc(Oc3ccnc(-c4nnco4)c3)c2)ccc1OC [Example 10, N-(3-(2-(1,3,4-Oxadiazol-2-yl)pyridin-4-yloxy)phenyl)-3-butoxy-4-methoxybenzamide] | ≤ 10 | ≤ 10 | > 10
CCOc1cc(OCC)cc(C(=O)Nc2cccc(Oc3ccnc(C(=O)NC)c3)c2)c1 [Example 14, 4-(3-(3,5-Diethoxybenzamido)phenoxy)-N-methylpicolinamide] | > 10 | > 10 | > 10
CCOc1cc(OCC)cc(C(=O)Nc2cc(Oc3cc(-c4cnn(C)c4)ncn3)ccc2F)c1 [Example 17, 3,5-Diethoxy-N-(2-fluoro-5-(6-(1-methyl-1H-pyrazol-4-yl)pyrimidin-4-yloxy)phenyl)benzamide] | > 10 | > 10 | > 10
CCOc1cc(OCC)cc(C(=O)Nc2cccc(Oc3cc(-c4nc(C(F)(F)F)c[nH]4)ncn3)c2)c1 [Example 18, 3,5-Diethoxy-N-(3-(6-(4-(trifluoromethyl)-1H-imidazol-2-yl)pyrimidin-4-yloxy)phenyl)benzamide] | ≤ 10 | ≤ 10 | > 10
CCOc1cc(OCC)cc(C(=O)Nc2ccc(Oc3ccnc(-c4cnn(C)c4)c3)cc2)c1 [Example 20, 3,5-Diethoxy-N-(4-(2-(1-methyl-1H-pyrazol-4-yl)pyridin-4-yloxy)phenyl)benzamide] | ≤ 10 | ≤ 10 | ≤ 10
Cn1cc(-c2cc(Oc3cccc(NC(=O)c4ccc(Cl)c(C(F)(F)F)c4)c3)ccn2)cn1 [Example 21, 4-Chloro-N-(3-(2-(1-methyl-1H-pyrazol-4-yl)pyridin-4-yloxy)phenyl)-3-(trifluoromethyl)benzamide] | > 10 | > 10 | > 10
Cn1cc(-c2cc(Oc3ccc(NC(=O)c4ccc(Cl)c(C(F)(F)F)c4)cc3)ccn2)cn1 [Example 22, 4-Chloro-N-(4-(2-(1-methyl-1H-pyrazol-4-yl)pyridin-4-yloxy)phenyl)-3-(trifluoromethyl)benzamide] | ≤ 10 | ≤ 10 | ≤ 10
Cn1cc(-c2cc(Oc3cccc(NC(=O)c4ccc(OC(F)(F)F)cc4)c3)ncn2)cn1 [Example 23, N-(3-(6-(1-Methyl-1H-pyrazol-4-yl)pyrimidin-4-yloxy)phenyl)-4-(trifluoromethoxy)benzamide] | > 10 | > 10 | > 10
CCOc1cc(OCC)cc(C(=O)Nc2cccc(Oc3cc(-c4cnn(C)c4)ncn3)c2)c1 [Example 24, 3,5-Diethoxy-N-(3-(6-(1-methyl-1H-pyrazol-4-yl)pyrimidin-4-yloxy)phenyl)benzamide] | > 10 | ≤ 10 | > 10
Cn1cc(-c2cc(Oc3cccc(NC(=O)c4ccc(Cl)c(C(F)(F)F)c4)c3)ncn2)cn1 [Example 25, 4-Chloro-N-(3-(6-(1-methyl-1H-pyrazol-4-yl)pyrimidin-4-yloxy)phenyl)-3-(trifluoromethyl)benzamide] | > 10 | > 10 | > 10
Cn1cc(-c2cc(Oc3ccc(F)c(NC(=O)c4ccc(Cl)c(C(F)(F)F)c4)c3)ncn2)cn1 [Example 26, 4-Chloro-N-(2-fluoro-5-(6-(1-methyl-1H-pyrazol-4-yl)pyrimidin-4-yloxy)phenyl)-3-(trifluoromethyl)benzamide] | > 10 | > 10 | > 10
Cn1cc(-c2nccc(Oc3cccc(NC(=O)c4ccc(OC(F)(F)F)cc4)c3)n2)cn1 [Example 27, N-{3-[2-(1-Methyl-1H-pyrazol-4-yl)-pyrimidin-4-yloxy]-phenyl}-4-trifluoromethoxy-benzamide] | > 10 | > 10 | > 10

Other lines, results leading:

IC50 [1] [µM] | IC50 [2] [µM] | IC50 [3] [µM] | Compound
≤ 10 | > 10 | > 10 | O=C(Cc1ccc(F)c(C(F)(F)F)c1)Nc1cccc(Oc2ccnc(-c3nnco3)c2)c1 [Example 1, N-(3-(2-(1,3,4-Oxadiazol-2-yl)pyridin-4-yloxy)phenyl)-2-(4-fluoro-3-(trifluoromethyl)phenyl)acetamide]
≤ 10 | > 10 | > 10 | CCOc1cc(C(=O)Nc2cccc(Oc3ccnc(-c4nnco4)c3)c2)cc(OCC)c1OCC [Example 2, N-(3-(2-(1,3,4-Oxadiazol-2-yl)pyridin-4-yloxy)phenyl)-3,4,5-triethoxybenzamide]
≤ 10 | ≤ 10 | > 10 | O=C(Nc1cccc(Oc2ccnc(-c3nnco3)c2)c1)c1cccc(Oc2ccccc2)c1 [Example 4, N-(3-(2-(1,3,4-Oxadiazol-2-yl)pyridin-4-yloxy)phenyl)-3-phenoxybenzamide]
≤ 10 | > 10 | > 10 | O=C(Nc1cccc(Oc2ccnc(-c3nnco3)c2)c1)c1ccc(Oc2ccccc2)cc1 [Example 5, N-(3-(2-(1,3,4-Oxadiazol-2-yl)pyridin-4-yloxy)phenyl)-4-phenoxybenzamide]
≤ 10 | > 10 | > 10 | O=C(Nc1cccc(Oc2ccnc(-c3nnco3)c2)c1)c1ccc2c(c1)OCCCO2 [Example 6, N-(3-(2-(1,3,4-Oxadiazol-2-yl)pyridin-4-yloxy)phenyl)-3,4-dihydro-2H-benzo[b][1,4]dioxepine-7-carboxamide]
≤ 10 | > 10 | > 10 | CCOc1ccc(C(=O)Nc2cccc(Oc3ccnc(-c4nnco4)c3)c2)cc1OCC [Example 8, N-(3-(2-(1,3,4-Oxadiazol-2-yl)pyridin-4-yloxy)phenyl)-3,4-diethoxybenzamide]
≤ 10 | ≤ 10 | > 10 | COc1ccc(C(=O)Nc2cccc(Oc3ccnc(-c4nnco4)c3)c2)cc1OC1CCCC1 [Example 9, N-(3-(2-(1,3,4-Oxadiazol-2-yl)pyridin-4-yloxy)phenyl)-3-(cyclopentyloxy)-4-methoxybenzamide]
≤ 10 | > 10 | > 10 | O=C(Nc1cccc(Oc2ccnc(-c3nnco3)c2)c1)c1cccc(N2CCCCC2)c1 [Example 11, N-[3-(2-[1,3,4]Oxadiazol-2-yl-pyridin-4-yloxy)-phenyl]-3-piperidin-1-yl-benzamide]
≤ 10 | ≤ 10 | > 10 | O=C(Nc1cccc(Oc2ccnc(-c3nnco3)c2)c1)c1cccc(N2CCOCC2)c1 [Example 12, 3-Morpholin-4-yl-N-[3-(2-[1,3,4]oxadiazol-2-yl-pyridin-4-yloxy)-phenyl]-benzamide]
≤ 10 | ≤ 10 | > 10 | CCOc1cc(C(=O)Nc2cccc(Oc3ccnc(C(=O)NC)c3)c2)cc(OCC)c1OCC [Example 13, N-Methyl-4-(3-(3,4,5-triethoxybenzamido)phenoxy)picolinamide]
≤ 10 | ≤ 10 | > 10 | CNC(=O)c1cc(Oc2cccc(NC(=O)c3ccc(OC)c(OC4CCCC4)c3)c2)ccn1 [Example 15, 4-(3-(3-(Cyclopentyloxy)-4-methoxybenzamido)phenoxy)-N-methylpicolinamide]
